# Data reported in patent publication US20250375414A1, “UROLITHIN COMBINATIONS” (Amazentis SA, priority 2024, published 2025).
# Key:
# [1] = test system: Interleukin-6 (IL-6) secretion in human dermal fibroblasts (nHDF); assay: IL-6 in supernatant of cytokine mix-treated normal human dermal fibroblasts (nHDF) (ELISA); type: cell-based
# Protocol: A dose of 0.025 ng/ml of Cytokines mix was applied to induce inflammation, measured by quantifying the levels of the pro-inflammatory cytokine interleukin 6 (IL-6) in the cell culture supernatant. For the experiment, cells were first pre-treated with either i) urolithin A 2.5 uM, ii) Zinc at 100 uM, iii) a combination of urolithin A 2.5 uM and Zinc 100 uM, iv) or DMSO as control for 24 h. Then cells were co-treated with both CTX and either urolithin A or Zinc alone or in combination, as above. After 24 h, IL-6 was measured in the cell supernatant to assess the ability of Urolithin A and Zinc to reduce Cytokines-induced inflammation.
# Normal Human dermal fibroblasts (nHDF) purchased from Promocell (ref. C-12302) were seeded at 6000 cells per well in a 96 well plate (Greiner) using a DMEM Glutamax 1 g D-glucose (Gibco, ref 21885108) supplemented with FBS 10% (PanBiotech, ref P30-3033), 1% PenStrep (Biowest) and 1% Hepes (Biowest). All media were sterilized with a 0.45 μm filter unit (VWR). The day after the seeded cells were treated for 24 h with 1) Urolithin A (UA) resuspended in DMSO, Zinc gluconate (MedChemExpress Ref. HY-W145499) or a combination of the two at the indicated doses.Cytokine mix (“cytomix”) was added in addition of the previous treatment for another 24 h, cytokines were used equally for a total and final concentration of 0.025 ng/ml (mIFN-g (roche ref.11276905001), TNF-α (Peprotech ref. 300-01A) and IL-b (Proteintech ref. 200-011B)). The medium was collected and an ELISA for Interleukin-6 were performed following the instruction provided by the supplier (Proteintech ref. KE10007). Finally, the absorbance at a wavelength of 450 nm was measured using a microplate plate reader (Fluostar Optima, BMG Labtech). IL-6 data were finally normalized over cell number, calculated with a cell viability assay (Promega, ref. G7571).
# [2] = test system: Interleukin-6 (IL-6) secretion in C2C12 myotubes; assay: IL-6 release from cytomix (CTX)-inflamed C2C12 myotubes (ELISA of culture media); type: cell-based, mouse; conditions: for Impact on the release of IL-6 (significance): FIG. 3
# Protocol: We first studied what is the lowest non-functional dose of Urolithin A in the context of cytokine-mediated muscle cell inflammation. For this, we exposed C2C12 myotubes to increasing doses of Urolithin A within a range of 1.56 uM to […] for 24 hours, and then induced inflammation for an additional 24 hours by applying to cells a mix of pro-inflammatory cytokines (Cytomix, abbreviated CTX). One set of cells were left untreated, indicated by the first bar (CTX−, UA−). One set of cells were treated with CTX but not Urolithin A (second bar, CTX+, UA−). At the end of the study, we measure the concentration of the proinflammatory biomarker Interleukin 6 (IL-6) released in the cell culture media.
# Based on the literature we used concentrations of ERGO at two low doses—potentially non-functional—i.e. 4 uM and 20 uM. […] As for the UA experiment in FIG. 1, we treated C2C12 with ERGO at these […] doses for 24 hours, followed by treatment with CTX for additional 24 hours.
# For this combination experiment, C2C12 were treated without CTX, with CTX alone and with CTX plus either UA alone (6.25 uM), ERGO alone (both 20 uM and 100 uM) and UA plus ERGO 20 uM and UA+ERGO 100 uM.
# C2C12 Myoblasts purchased from the American Type Culture Collection (ATCC; ref. CRL-1772) were seeded at 8000 cells per well in a 96 well plate (Greiner) using a DMEM Glutamax 4.5 g D-glucose (Gibco, ref 31966021) supplemented with FBS 10% (PanBiotech, ref P190902), 1% PenStrep (Biowest, Nuaill6, France) and 1% Hepes (Biowest). Cells were then differentiated for 6 days using a differentiation medium (DMEM Glutamax 4.5 g D-glucose (Gibco, ref 31966021), 2% Horse serum (Thermofisher, ref 160501229) 1% PenStrep and 1% Hepes). All our media were sterilized with a 0.45 μm filter unit (VWR). After 4 days of the differentiation cells were treated for 24 h with 1) Urolithin A (UA), Ergothieoneine (ERGO, MedChem Express HY-N1914) or a combination of the two at the indicated doses. Cytokine mix (“cytomix”) was added at day 5 in addition of the previous treatment for another 24 h, cytokines were respectively used at 5 ng (mIFN-γ (Roche ref.11276905001), TNF-α (Peprotech ref. 300-01A) and IL-β (Proteintech ref. 200-011B)). The medium was collected and an ELISA for Interleukin-6 were performed following the instruction provided by the supplier (Proteintech ref. KE10007). Finally, the absorbance at a wavelength of 450 nm was measured using a microplate plate reader (Fluostar Optima, BMG Labtech).
# [3] = test system: IL-6 levels in 3T3-L1 cells; conditions: 3T3-L1 cells after stimulation with TNFα; cited from earlier work
# [4] = test system: IL-6 levels in stressed C2C12 cells; conditions: cited from earlier work
molecule,measurement,setting,value
Zinc gluconate,% reduction IL-6,"[1]; CTX vs. CTX + Zinc 100 uM, nHDF",−29.6%
same,Relative Change (%) Compared to CTX,"[1]; Zinc 100 uM, CTX 0.025 ng/ml, IL-6 in nHDF supernatant",−29.57%
same,Reduction of CTX-mediated increase of IL-6,"[1]; Zinc 100 uM, nHDF",29.6%
"O=c1oc2cc(O)ccc2c2ccc(O)cc12 [UA, Urolithin A]",First dose at which UA did not exert a significant reduction in IL-6 (sub-functional dose),"[2]; C2C12 myotubes, CTX, FIG. 1",6.25 µM
same,Effect on IL-6 release of CTX inflamed cells,"[2]; UA 1.56 uM to 50 mM, 24 h, then CTX 24 h, FIG. 1",dose dependent decrease
same,Percent change in IL-6 vs CTX alone,"[2]; UA 6.25 uM, 24 h, then cytomix (CTX) further 24 h, C2C12 myotubes",−5.2%
same,Impact on the release of IL-6 (significance),"[2]; UA alone 6.25 uM, CTX",did not significantly impact
same,% reduction IL-6,"[1]; CTX vs. CTX + UA 2.5 uM, nHDF",−25%
"C[N+](C)(C)[C@@H](Cc1c[nH]c(=S)[nH]1)C(=O)[O-] [ERGO, ergothioneine]",Percent change in IL-6 vs CTX alone,"[2]; ERGO 20 uM, 24 h, then CTX further 24 h, C2C12 myotubes",+1.2%
same,Percent change in IL-6 vs CTX alone,"[2]; ERGO 100 uM, 24 h, then CTX further 24 h, C2C12 myotubes",−28%
same,Impact on IL6 (significance),"[2]; ERGO 100 uM, CTX",significant reduction
same,Impact on the release of IL-6 (significance),"[2]; ERGO alone 20 uM, CTX",did not significantly impact
same,Only dose leading to a significant decrease in CTX-induced IL-6 secretion,"[2]; ERGO tested at 4 uM, 20 uM and 100 uM, FIG. 2",100 µM
same,Effect on IL-6 levels,[3],reduce IL-6 levels
same,Effect on IL-6 levels,[4],reduce IL-6 levels
